As a reminder, the Ki is the dissociation constant of the complex between target and ligand, obtained from inhibition or displacement. Low values mean higher affinity, high ones lower affinity. By EC50 is commonly meant the concentration needed to bring the measured effect to its halfway point. Read a low EC50 as greater potency.

The target in test [1] is T1, hMC4 (Homo sapiens, UniProt P32245).
T1 construct: expressed in transfected cells; host or cells: CHO-K1
The experiment in a line: Radioligand binding assay, [125I]-NDP-α-MSH, CHO-K1 membranes. How it is done: (§1) Cellular membranes used for the in vitro receptor binding assays were obtained from transgenic CHO-K1 cells stably expressing hMC-R receptor subtypes 1, 3, 4 or 5. […] The pellets were re-suspended in the same buffer and centrifuged at 50,000 g for 10 minutes at approximately 4° C. The washed pellets containing the cellular membranes were stored at approximately −80° C.
(§2) Filters were washed three times with 50 mM Tris-HCl at pH 7.4 at a temperature of approximately 0-4° C. and then assayed for radioactivity using a Packard Topcount® scintillation counter. Binding data were analyzed by computer-assisted non-linear regression analysis (XL fit; IDBS).

Test [2] has as its target T2, hMC1 (Homo sapiens, UniProt Q01726).
T2 construct: expressed in transfected cells; host or cells: CHO-K1
Described as above. How it is done:
as §1, §2

The target of test [3] is T3, hMC5 (Homo sapiens, UniProt P33032).
T3 construct: expressed in transfected cells; host or cells: CHO-K1
The description is as above. How it is done:
as §1, §2

Test [4] has as its target T4, hMC3 (Homo sapiens, UniProt P41968).
T4 construct: expressed in transfected cells; host or cells: CHO-K1
The test is described as above. The procedure:
as §1, §2

The target in test [5] is T2, hMC1. In words: Cyclic AMP bioassay (ECL), CHO-K1 cells expressing hMC1. As to conditions: intracellular cAMP. The class given is cell-based.
Description: (§3) Intracellular cyclic AMP (cAMP) levels were determined by an electrochemiluminescence (ECL) assay (Meso Scale Discovery®, Gaithersburg, Md.; referred to hereinafter as “MSD”). […] Transgenic CHO-K1 cells stably expressing hMC receptor subtypes 1, 3, 4 or 5 were dispensed at a density of approximately 7,000 cells/well in 384-well Multi-Array® plates (MSD) containing integrated carbon electrodes and coated with anti-cAMP antibody. Increasing concentrations of the test compounds were added and the cells were incubated for approximately 40 minutes at approximately 37° C. […] At the end of the second incubation period read buffer (Tris-buffered solution containing an ECL co-reactant and Triton X-100 at ph 7.8) was added and the cAMP levels in the cell lysates were immediately determined by ECL detection with a Sector Imager 6000 Reader® (MSD). Data was analyzed using a computer-assisted non-linear regression analysis (XL fit; IDBS) and reported as either an EC50 value or a Kb value.
The target in test [6] is T3, hMC5. The experiment in a line: Cyclic AMP bioassay (ECL), CHO-K1 cells expressing hMC5. The test is classed as cell-based. The note with it: intracellular cAMP.
Description: as §3
Test [7] deals with T4, hMC3. In words: Cyclic AMP bioassay (ECL), CHO-K1 cells expressing hMC3. The test is classed as cell-based. As to conditions: intracellular cAMP.
Description: as §3
Test [8] addresses T1, hMC4. In words: Cyclic AMP bioassay (ECL), CHO-K1 cells expressing hMC4. The test is classed as cell-based. The note with it: intracellular cAMP.
Description: as §3

T4 sequence (P41968 whole entry): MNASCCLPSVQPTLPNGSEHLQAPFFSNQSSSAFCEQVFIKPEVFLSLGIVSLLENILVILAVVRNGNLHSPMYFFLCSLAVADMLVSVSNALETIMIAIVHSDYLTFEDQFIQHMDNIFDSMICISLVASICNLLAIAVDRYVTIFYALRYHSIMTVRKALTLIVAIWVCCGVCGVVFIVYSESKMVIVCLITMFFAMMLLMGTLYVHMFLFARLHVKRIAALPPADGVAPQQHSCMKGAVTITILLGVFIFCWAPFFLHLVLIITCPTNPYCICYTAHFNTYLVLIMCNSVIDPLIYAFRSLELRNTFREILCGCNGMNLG
T1 sequence (P32245 whole entry): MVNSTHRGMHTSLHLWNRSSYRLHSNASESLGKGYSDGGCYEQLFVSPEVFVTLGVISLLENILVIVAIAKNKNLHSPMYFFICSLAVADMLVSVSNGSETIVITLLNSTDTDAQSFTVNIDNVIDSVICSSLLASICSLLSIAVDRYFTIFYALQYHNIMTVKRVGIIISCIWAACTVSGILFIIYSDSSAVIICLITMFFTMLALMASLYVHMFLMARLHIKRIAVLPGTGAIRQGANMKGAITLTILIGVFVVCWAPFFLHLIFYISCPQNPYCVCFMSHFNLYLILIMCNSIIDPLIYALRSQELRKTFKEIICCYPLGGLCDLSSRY
T3 sequence (P33032 whole entry): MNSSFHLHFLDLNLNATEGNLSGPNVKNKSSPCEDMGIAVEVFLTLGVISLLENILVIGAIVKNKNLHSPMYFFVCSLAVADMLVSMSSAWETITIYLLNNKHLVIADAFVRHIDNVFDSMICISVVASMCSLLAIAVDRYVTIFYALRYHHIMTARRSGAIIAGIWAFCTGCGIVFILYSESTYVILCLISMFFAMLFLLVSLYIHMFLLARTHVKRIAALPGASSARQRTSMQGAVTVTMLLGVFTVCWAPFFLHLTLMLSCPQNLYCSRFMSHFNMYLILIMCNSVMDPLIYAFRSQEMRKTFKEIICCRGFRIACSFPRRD
T2 sequence (Q01726 whole entry): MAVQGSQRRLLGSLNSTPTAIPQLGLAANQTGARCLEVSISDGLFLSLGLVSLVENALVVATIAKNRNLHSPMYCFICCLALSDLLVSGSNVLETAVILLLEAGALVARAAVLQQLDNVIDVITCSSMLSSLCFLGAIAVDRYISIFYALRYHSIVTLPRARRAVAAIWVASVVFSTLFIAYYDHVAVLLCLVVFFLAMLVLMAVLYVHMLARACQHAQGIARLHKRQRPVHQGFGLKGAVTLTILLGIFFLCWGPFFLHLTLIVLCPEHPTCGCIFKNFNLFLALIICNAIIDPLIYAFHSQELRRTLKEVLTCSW

With `N=C(N)NCCC[C@@H]1NC(=O)[C@@H](Cc2ccccc2)NC(=O)[C@H](Cc2cnc[nH]2)NC(=O)[C@H](CCC(=O)O)NC(=O)[C@@H](NC(=O)[C@@H](CCCNC(=N)N)N2C(=O)CNC2=O)CSSC[C@@H](C(N)=O)NC(=O)[C@H](Cc2c[nH]c3ccccc23)NC1=O` [Hydantoin(C(O)-(Gly-D-Arg))-cyclo(Cys-Glu-His-D-Phe-Arg-Trp-Cys)-NH2], the Ki at hMC4 [1] is 0.00177 µM; on hMC1 [2], 0.0043 µM; at hMC5 [3], 4.54 µM; on hMC3 [4], 0.078 µM. Further, the EC50 at hMC1 [5] was determined as 0.0129 µM; on hMC5 [6], 7.44 µM; at hMC3 [7], 0.0103 µM; on hMC4 [8], 0.000125 µM.
With `C[C@@H]1C(=O)N[C@@H](Cc2cnc[nH]2)C(=O)N[C@H](Cc2ccccc2)C(=O)N[C@@H](CCCNC(=N)N)C(=O)N[C@@H](Cc2c[nH]c3ccccc23)C(=O)N[C@H](C(N)=O)CCCNC(=O)C[C@@H]2NC(=O)N1C2=O` [cyclo[Hydantoin(C(O)-(Asp-D-Ala))-His-D-Phe-Arg-Trp-Orn]-NH2], the Ki at hMC4 [1] was 0.00781 µM; at hMC1 [2], 0.0377 µM; at hMC5 [3] it was 6.4 µM; at hMC3 [4], 0.576 µM. Further, the EC50 was 0.0566 µM at hMC1 [5], 9.3 µM at hMC5 [6], 0.0886 µM at hMC3 [7] and 0.0045 µM at hMC4 [8].

Source of the values: patent publication US8563000B2, “Melanocortin receptor ligands modified with hydantoin” (Ipsen Pharma S.A.S., priority 2007, dated 2013).
